These results are taken from ChEMBL document CHEMBL3352337, “Scaffold-switching: an exploration of 5,6-fused bicyclic heteroaromatics systems to afford antituberculosis activity akin to the imidazo[1,2-a]pyridine-3-carboxylates” (Bioorg Med Chem Lett, 2014).

The test system of this assay is Mycobacterium tuberculosis variant bovis BCG. In words: Antimycobacterial activity against Mycobacterium bovis BCG ATCC 35734 in 7H12 medium after 6 days and 18 hrs after adding resazurin dye/Tween 80 by Microplate Alamar Blue assay. In kind it is functional. (Resazurin is reduced to fluorescent resorufin, in cell work by metabolically active cells.)

≈ marks a conversion by molar mass, not a printed value. Where only a bound is given, the exact number is not on record here.

In general, MIC refers to the lowest concentration found to suppress growth.

For `Cc1cc(C)n2nc(C(=O)NCc3ccccc3)nc2n1`, the minimal inhibitory concentration (MIC) was over 128 µM. Next, `Cc1ccc2nc(C)c(C(=O)NCc3ccccc3)n2c1`: 0.96 µM (≈ 0.268 µg/mL).

`Cc1cnc2nc(C)c(C(=O)NCc3ccccc3)n2c1` showed an MIC of 7.8 µM (≈ 2.19 µg/mL). `Cc1ccc2nc(C)c(C(=O)NCc3ccccc3)n2n1` registered an MIC of over 128 µM.

Turning to `Cc1ccc2c(C(=O)NCc3ccccc3)c(C)[nH]c2c1`, the MIC was over 128 µM.

For the compound `Cc1ccc2c(C(=O)NCc3ccccc3)n[nH]c2c1`, the MIC is over 128 µM. Next, `Cc1ccn2c(C(=O)NCc3ccccc3)nnc2c1`: over 128 µM. `Cc1ccn2c(C)c(C(=O)NCc3ccccc3)nc2c1` registered an MIC of over 128 µM. Compound `NNC(=O)c1ccncc1` [ISONIAZID] returned an MIC of 0.41 µM (≈ 0.0562 µg/mL). `COc1c(N2C[C@@H]3CCCN[C@@H]3C2)c(F)cc2c(=O)c(C(=O)O)cn(C3CC3)c12` [MOXIFLOXACIN] came in with an MIC of 0.06 µM (≈ 0.0241 µg/mL). Next, `CO[C@H]1/C=C/O[C@@]2(C)Oc3c(C)c(O)c4c(O)c(c(/C=N/N5CCN(C)CC5)c(O)c4c3C2=O)NC(=O)/C(C)=C\C=C\[C@H](C)[C@H](O)[C@@H](C)[C@@H](O)[C@@H](C)[C@H](OC(C)=O)[C@@H]1C` [RIFAMPIN]: under 0.004 µM.
